Experimental data reported in PMC4021972 (2014).

Test system: KRAS utr-2 (RNA, G4) GGAAGGCGGCGG
Experiment: UV-vis titration (Soret band)
Settings: 100 mM KCl; 50 mM Tris-HCl pH 7.4 (from methods); 6 μM C14 titrated with G4-RNA; simple binding equation

KD: ~ 5 × 10^-7 M
Compound: CCCCCCCCCCCCCC[n+]1ccc(-c2c3nc(c(-c4cc[n+](C)cc4)c4ccc([nH]4)c(-c4cc[n+](C)cc4)c4nc(c(-c5cc[n+](C)cc5)c5ccc2[nH]5)C=C4)C=C3)cc1
